Results on nine compounds are retold here after US6586450B2, “Phenethyl-thiourea compounds and use” (Parker Hughes Institute, priority 1999, dated 2003).

Read-outs that look alike come from different tables or passages of the source.

One data set has as its system HIV-1 strain HTLVIIIB
Put plainly: Inhibition of HIV-1 HTLVIIIB replication in PBMC (p24 antigen EIA). It counts as cell-based. The procedure: The HIV strain HTLVIIIB was kindly provided by Dr. Neal T.Wetherall, VIROMED Laboratories, Inc., and was propagated in CCRF-CEM cells.
Subsequently, cells were cultured in 96-well microplates (100 μL/well; 2×10^6 cells/mL, triplicate wells) in the presence of various inhibitor concentrations. […] Ag. […] The applied p24 EIA was the unmodified kinetic assay commercially available from Coulter Corporation/Immunotech, Inc. (Westbrook, Me.).
(§1) Percent inhibition of viral replication was calculated by comparing the p24 values from the test substance-treated infected cells with p24 values from untreated infected cells (i.e, virus controls).

In data set [1] the test system is multidrug resistant HIV-1 strain RT-MDR with a V106A mutation. Put plainly: microbe, parasite or virus in culture. It is filed as cell-based. The procedure:
(§2) Normal human peripheral blood mononuclear cells (PBMNC) from HIV-negative donors were cultured 72 hours in RPMI 1640 supplemented with 20% (v/v) heat-inactivated fetal bovine serum (FBS), 3% interleukin-2,2 mM L-glutairine, 25 mM HEPES, 2 μL, NAHCO, […] gentamicin, and 4 μg/mL phytohemagglutinin prior to exposure to HIV-1 or other HIV strain at a multiplicity of infection (MOI) of 0.1 during a one-hour adsorption period at 37° C. in a humidified 5% CO2 atmosphere. Subsequently, cells were cultured in 96-well microplates (100 μL/well; 2×10^6 cells/mL, triplicate wells) in the presence of various inhibitor concentrations. Aliquots of culture supernatants were removed from the wells on the 7th day after infection for p24 antigen p24 enzyme immunoassays (EIA), as previously described in Erice et al., 1993, Antimicrob. Ag. Chemotherapy 37:385-838. The applied p24 EIA was the unmodified kinetic assay commercially available from Coulter Corporation/Immunotech, Inc. (Westbrook, Me.).
as §1

Data set [2] concerns NNI-resistant HIV-1 strain A17 with a Y181C mutation. Put plainly: microbe, parasite or virus in culture. It is filed as cell-based. To be noted: for IC50: read-out: IC50 A17 (Y181C). The procedure:
as §2, §1

In another data set the test system is PBMC. Put plainly: Microculture tetrazolium Assay (MTA, XTT) for cytotoxicity. It counts as cell-based, human.
Data set [3] deals with T1, purified recombinant HIV RT (Human immunodeficiency virus type 1 group M subtype B, UniProt P04585).
T1 construct: against purified recombinant HIV RT using the cell-free Quan-T-RT system
As to the kind of experiment: Purified recombinant HIV RT inhibition, cell-free Quan-T-RT scintillation proximity assay. It is filed as biochemical. The method, then:
In the assay, a DNA/RNA template is bound to SPA beads via a biotin/strepavidin linkage. The primer DNA is a 16-mer oligo(T) which has been annealed to a poly(A) template. The primer/template is bound to a strepavidin-coated SPA bead.
^3H-TTP is incorporated into the primer by reverse transcription. […] The compound being tested was added to the reaction mixture at 0.001 μM-100 μM concentrations. […] The reaction was stopped by addition of 0.2 ml of 120 mM EDTA. The samples were counted in an open window using a Beckman LS 7600 instrument and IC50 values were calculated by comparing the measurements to untreated samples.

The nature of data set [4]: Microculture tetrazolium Assay (MTA, XTT) for cytotoxicity. It is filed as cell-based, human. The note with it: human, PBMC; Table 1; cytotoxicity, MTA. In general terms: Tetrazolium dyes change colour on reduction, which living cells bring about.
Setting [5] is: Table 1, recombinant HIV RT, read-out: IC50 rRT.
[6] abbreviates: Table 2, recombinant HIV reverse transcriptase, read-out: IC50 rRT.
[7] abbreviates: read-out: IC50 rRT, Table 2, recombinant HIV reverse transcriptase.
Setting [8] is: Human immunodeficiency virus 1, PBMC, Table 2, wild-type HIV-1, read-out: IC50 p24.
Setting [9] is: Human immunodeficiency virus 1, Table 1, p24 production in PBMC, read-out: IC50 HTLV mB.
[10] abbreviates: Human immunodeficiency virus 1, PBMC, read-out: IC50 RT-MDR.
[11] abbreviates: Human immunodeficiency virus 1, PBMC.
The mark [12] stands for this setting: Human immunodeficiency virus 1, PBMC, read-out: IC50 HTLV mB.

Regarding `S=C(NCCc1ccccn1)Nc1ccc(Br)cn1` [Trovirdine, reference compound], the IC50 (usually the point on the concentration scale where inhibition reaches its midpoint) in the data set on HIV-1 strain HTLVIIIB (Table 1, p24 production in PBMC, read-out: IC50 HTLV mB) was 7 nM; in the data set with HIV-1 strain HTLVIIIB (Table 2, wild-type HIV-1, read-out: IC50 p24), 7 nM; in data set [1] (Table 1, p24 production in PBMC, read-out: IC50 RT-MDR (Y106A)) it was 20 nM; in data set [2] (Table 1, p24 production in PBMC), 500 nM. Besides, the “times less potent than HI-244” value in data set [1] (RT-MDR strain) was determined as 20 times. The CC50 – broadly, the concentration giving 50% cytotoxicity – in the data set on PBMC (Table 1, cytotoxicity, MTA) was over 100000 nM.

For the compound `Fc1ccc(CCNC(=S)Nc2ccc(Br)cn2)cc1` [HI-242, N-[2-(4-fluorophenethyl)]-N′-[2-(5-bromopyridyl)]thiourea], the IC50 in data set [3] (setting [5]) and in data set [3] (setting [6]) was 6400 nM each time.

Turning to `O=[N+]([O-])c1ccc(CCNC(=S)Nc2ccc(Br)cn2)cc1` [HI-231], the IC50 in data set [3] (setting [5]) and in data set [3] (setting [6]) was over 100000 nM in each case.

For `COc1ccc(CCNC(=S)Nc2ccc(Br)cn2)cc1` [HI-238, N-[2-(4-methoxyphenethyl)]-N′-[2-(5-bromopyridyl)]thiourea], the melting point – broadly, the temperature, or range, at which the solid turns liquid – was in the range of 178 to 179 °C. Further, the IC50 in data set [3] was 900 nM. Further, the IC50 in data set [3] (setting [7]) came out at 900 nM. Further, the IC50 in the data set on HIV-1 strain HTLVIIIB (setting [8]) was determined as 15 nM. Besides, the IC50 in the data set on HIV-1 strain HTLVIIIB (setting [9]) worked out at 15 nM. In data set [4], this compound returned a CC50 of over 100000 nM.

For `S=C(NCCc1ccc(Br)cc1)Nc1ccc(Br)cn1` [HI-243, N-[2-(4-bromophenethyl)]-N′-[2-(5-bromopyridyl)]thiourea], the melting point fell in the range of 184 to 185 °C. For the same compound, the IC50 in data set [3] came out at 900 nM. Moreover, the IC50 in the data set on HIV-1 strain HTLVIIIB (setting [8]) was determined as 70 nM. In addition, the half-maximal inhibitory concentration (IC50) with HIV-1 strain HTLVIIIB (setting [9]) amounted to 70 nM. Moreover, the IC50 in data set [1] (setting [10]) is over 1 nM. For the same compound, the IC50 in data set [2] (setting [11]) came to 1000 nM. The same compound returned a CC50 in data set [4] of over 100000 nM.

In turn, `Cc1ccc(CCNC(=S)Nc2ccc(Br)cn2)cc1` [HI-244, N-[2-(4-methylphenethyl)]-N′-[2-(5-bromopyridyl)]thiourea] came in with a melting point of 159 to 162 °C. Also, in data set [3], the IC50 was 100 nM. Also, the IC50 in the data set on HIV-1 strain HTLVIIIB (setting [12]) came out at 7 nM. For the same compound, the IC50 with HIV-1 strain HTLVIIIB (Human immunodeficiency virus 1, PBMC, read-out: IC50 for inhibition of replication of HIV-1 strain HTLVIIIB in PBMC) is 7 nM. The IC50 with HIV-1 strain HTLVIIIB (Human immunodeficiency virus 1, PBMC, read-out: IC50 p24) amounted to 7 nM. Besides, the selectivity index in the data set on HIV-1 strain HTLVIIIB (against wild-type HIV-1 strain HTLVIIIB) is recorded as > 10,000. Moreover, the IC50 in data set [1] (setting [10]) is over 1 nM. Besides, in data set [1] (RT-MDR strain, V106A plus 74V, 41L, 215Y), the “times more effective than trovirdine” value was found to be 20 times. Besides, the “resistance of mutant strain to compound” value in data set [1] (V106A mutant strain (RT-MDR)) is “no resistance”. In addition, in data set [1] (against multidrug-resistant V106A mutant strain RT-MDR), the selectivity index is > 71,000. Besides, the “times more potent than trovirdine” value in data set [2] (A17 strain, Y181C) is reported as 7 times. For the same compound, in data set [2] (setting [11]), the half-maximal inhibitory concentration (IC50) was 70 nM. Besides, in data set [2] (NNI-resistant A17 strain (Y181C mutation)), the “higher potency relative to trovirdine” value is listed as 7 fold. In addition, in data set [2] (Y181C mutant strain (A17 strain)), the “resistance of mutant strain to compound” value amounted to 10 fold. Besides, the selectivity index in data set [2] (against NNI-resistant Y181C mutant strain A17) is recorded as > 1,000. The compound further gave a CC50 in data set [4] of 71000 nM. In addition, in the data set with PBMC (at a concentration), the “cytotoxicity to PBMC” value is “not cytotoxic”.

The compound `S=C(NCCc1ccc(Cl)cc1)Nc1ccc(Br)cn1` [HI-255, N-[2-(4-chlorophenethyl)]-N′-[2-(5-bromopyridyl)]thiourea] returned a melting point of 180 to 183 °C. Further, in data set [3], the half-inhibitory concentration (IC50) was determined as 2500 nM. In addition, in data set [3] (setting [7]), the IC50 was found to be 2500 nM. Also, the IC50 in the data set on HIV-1 strain HTLVIIIB (setting [9]) amounted to 20800 nM.

With `S=C(NCCc1ccccc1)Nc1ccc(Br)cn1` [HI-275, N-[2-(5-Bromopyridinyl)]-N′-[2-(Phenethyl)] thiourea], in data set [3] (setting [5]), the IC50 was 1300 nM.

For the compound `Oc1ccc(CCNC(=S)Nc2ccc(Br)cn2)cc1` [HI-256, N-[2-(4-hydroxyphenethyl)]-N′-[2-(5-bromopyridyl)]thiourea], the IC50 in data set [3] came to 87700 nM; with HIV-1 strain HTLVIIIB (setting [12]), 3070 nM. Moreover, the CC50 in data set [4] is over 100000 nM.
